As a reminder, the Emax is the greatest response seen or fitted, relative to the assay's reference. Usually EC50 stands for the midpoint of the concentration-response curve.

In the experiment the target is T1, recombinant human PKM2 (Homo sapiens, UniProt P14618).
T1 construct: His (N); purchased R&D Systems
In words: Human PKM2 activation assay (Kinase-Glo Plus luminescent detection of generated ATP). It counts as biochemical. The following applies: for Emax: read-out: hPKM2 Emax; for EC50: 4-parameter logistic fit. Put shortly: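 N-His-tagged recombinant hPKM2 ([…]) with PEP and ADP was incubated with compound for 60 min at 26 °C, shaking, in 50 mM imidazole, 50 mM KCl, 7 mM MgCl2, 0.01% Tween20, 0.05% BSA, pH 7.2. ATP produced was read by Kinase-Glo Plus luminescence after 15 min.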
On the technique in general: Kinase-Glo measures the ATP left after a reaction by luminescence.

[1] abbreviates: percentage activation normalised to DMSO vehicle (LOW) and 5 μM TEPP-46 (HIGH).
[2] abbreviates: recombinant human PKM2 activation, read-out: hPKM2 EC50.

Where two headings read alike, the source gives them in different places.

T1 sequence (P14618 2-531 limits assumed): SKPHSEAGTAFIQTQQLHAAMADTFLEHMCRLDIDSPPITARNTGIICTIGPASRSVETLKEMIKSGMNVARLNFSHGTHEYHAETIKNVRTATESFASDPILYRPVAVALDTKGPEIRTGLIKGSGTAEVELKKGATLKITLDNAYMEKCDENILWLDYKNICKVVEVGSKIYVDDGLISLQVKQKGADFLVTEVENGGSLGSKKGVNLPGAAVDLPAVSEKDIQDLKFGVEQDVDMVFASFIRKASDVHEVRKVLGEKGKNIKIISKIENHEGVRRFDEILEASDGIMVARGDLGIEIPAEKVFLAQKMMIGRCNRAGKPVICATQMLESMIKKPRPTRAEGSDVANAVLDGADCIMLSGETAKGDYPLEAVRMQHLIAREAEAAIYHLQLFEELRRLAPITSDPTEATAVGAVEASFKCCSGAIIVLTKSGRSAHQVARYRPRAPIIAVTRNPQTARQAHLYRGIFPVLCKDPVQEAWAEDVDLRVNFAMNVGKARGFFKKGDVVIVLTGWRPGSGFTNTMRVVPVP

As for `COc1ccc(S(=O)(=O)c2ccc3c(=O)n(Cc4ccc(OC)nc4)ncc3c2)nc1` [Example 172, 6-(5-methoxypyridin-2-ylsulfonyl)-2-((6-methoxypyridin-3-yl)methyl)phthalazin-1(2H)-one], the maximum response (Emax) under setting [1] was 84.1%. The EC50 under setting [2] turned out to be 61.9 nM.

As to `COc1ccc(Cn2ncc3cc(S(=O)(=O)c4cnc(C(F)F)s4)ccc3c2=O)cn1` [Example 173, 6-(2-(difluoromethyl)thiazol-5-ylsulfonyl)-2-((6-methoxypyridin-3-yl)methyl)phthalazin-1(2H)-one], the Emax under setting [1] is 67.2%. The concentration for a half-maximal effect (EC50) under setting [2] came to 152 nM.

Take `COc1ccc(Cn2ncc3cc(S(=O)(=O)c4csc(C)n4)ccc3c2=O)cn1` [Example 174, 2-((6-methoxypyridin-3-yl)methyl)-6-(2-methylthiazol-4-ylsulfonyl)phthalazin-1(2H)-one]: under setting [1], the Emax was 94.2%. Under setting [2], the EC50 was found to be 106 nM.

Turning to `COc1ccc(Cn2ncc3cc(S(=O)(=O)c4ccc(OC)nc4)ccc3c2=O)cn1` [Example 175, 2-((6-methoxypyridin-3-yl)methyl)-6-(6-methoxypyridin-3-ylsulfonyl)phthalazin-1(2H)-one], under setting [1], the Emax amounted to 97.2%. Also, under setting [2], the EC50 came out at 71.2 nM.

Turning to `COc1ccc(Cn2ncc3cc(S(=O)(=O)c4cccc5sc(C)nc45)ccc3c2=O)cn1` [Example 176, 2-((6-methoxypyridin-3-yl)methyl)-6-(2-methylbenzo[d]thiazol-4-ylsulfonyl)phthalazin-1(2H)-one], the maximal response (Emax) under setting [1] came out at 95.8%. Moreover, the EC50 under setting [2] stood at 455 nM.

As for `COc1ccc(Cn2ncc3cc(S(=O)(=O)c4cnc(OC)cn4)ccc3c2=O)cn1` [Example 177, 6-(5-methoxypyrazin-2-ylsulfonyl)-2-((6-methoxypyridin-3-yl)methyl)phthalazin-1(2H)-one], under setting [1], the Emax was found to be 79%. Also, the EC50 under setting [2] was determined as 209 nM.

Take `COc1ccc(Cn2ncc3cc(S(=O)(=O)c4ccn(C(F)F)n4)ccc3c2=O)cn1` [Example 179, 6-(1-(difluoromethyl)-1H-pyrazol-3-ylsulfonyl)-2-((6-methoxypyridin-3-yl)methyl)phthalazin-1(2H)-one]: the Emax under setting [1] worked out at 89.7%. Further, the concentration for a half-maximal effect (EC50) under setting [2] amounted to 56.1 nM.

Take `COc1ccc(Cn2ncc3cc(S(=O)(=O)c4ccc5c(c4)OCCO5)ccc3c2=O)cn1` [Example 182, 6-((2,3-dihydrobenzo[b][1,4]dioxin-6-yl)sulfonyl)-2-((6-methoxypyridin-3-yl)methyl)phthalazin-1(2H)-one]: the Emax under setting [1] is 80.2%. In addition, the EC50 under setting [2] amounted to 15.2 nM.

For the compound `COc1ccc(Cn2ncc3cc(S(=O)(=O)c4cnc5c(c4)CCO5)ccc3c2=O)cn1` [Example 183, 6-((2,3-dihydrofuro[2,3-b]pyridin-5-yl)sulfonyl)-2-((6-methoxypyridin-3-yl)methyl)phthalazin-1(2H)-one], under setting [1], the Emax came to 79.7%. Under setting [2], the EC50 was determined as 47.2 nM.

`COc1ccc(Cn2ncc3cc(S(=O)(=O)c4ccn5ccnc5c4)ccc3c2=O)cn1` [Example 184, 6-(imidazo[1,2-a]pyridin-7-ylsulfonyl)-2-((6-methoxypyridin-3-yl)methyl)phthalazin-1(2H)-one]: the Emax under setting [1] stood at 59.6%. The EC50 under setting [2] was found to be 638 nM.

On to `COc1ccc(Cn2ncc3cc(S(=O)(=O)c4cn(C)c(C)n4)ccc3c2=O)cn1` [Example 185, 6-(1,2-dimethyl-1H-imidazol-4-ylsulfonyl)-2-((6-methoxypyridin-3-yl)methyl)phthalazin-1(2H)-one], for which the maximal effect (Emax) under setting [1] was determined as 66%. Besides, the EC50 under setting [2] was 739 nM.

For `COc1ccc(Cn2ncc3cc(S(=O)(=O)c4cnn(C)c4C)ccc3c2=O)cn1` [Example 190, 6-(1,5-dimethyl-1H-pyrazol-4-ylsulfonyl)-2-((6-methoxypyridin-3-yl)methyl)phthalazin-1(2H)-one], the Emax under setting [1] is 102%. Also, the EC50 under setting [2] worked out at 225 nM.

Regarding `COc1ccc(Cn2ncc3cc(S(=O)(=O)c4cn[nH]c4)ccc3c2=O)cn1` [Example 197, 6-((1H-pyrazol-4-yl)sulfonyl)-2-((6-methoxypyridin-3-yl)methyl)phthalazin-1(2H)-one], the Emax is 94.5%. For the same compound, the EC50 (hPKM2 EC50, recombinant human PKM2 activation) was determined as 153 nM.

As for `Cn1ccc(S(=O)(=O)c2ccc3c(=O)n(Cc4cccc(OC(F)F)c4)ncc3c2)n1` [Example 198, 2-(3-(difluoromethoxy)benzyl)-6-((1-methyl-1H-pyrazol-3-yl)sulfonyl)phthalazin-1(2H)-one], under setting [1], the maximum response (Emax) came out at 74%. In addition, the EC50 under setting [2] is 100 nM.

`COc1ccc(F)c(Cn2ncc3cc(S(=O)(=O)c4ccn(C)n4)ccc3c2=O)c1` [Example 199, 2-(2-fluoro-5-methoxybenzyl)-6-((1-methyl-1H-pyrazol-3-yl)sulfonyl)phthalazin-1(2H)-one]: under setting [1], the Emax was 91.4%. The EC50 under setting [2] came to 109 nM.

`Cn1cc(S(=O)(=O)c2ccc3c(=O)n(Cc4cccnc4O)ncc3c2)cn1` [Example 200, 2-((2-hydroxypyridin-3-yl)methyl)-6-((1-methyl-1H-pyrazol-4-yl)sulfonyl)phthalazin-1(2H)-one]: under setting [1], the Emax came to 80.2%. Moreover, under setting [2], the EC50 was found to be 621 nM.

Turning to `Cc1cccc(Cn2ncc3cc(S(=O)(=O)c4cnn(C)c4)ccc3c2=O)n1` [Example 204, 6-((1-methyl-1H-pyrazol-4-yl)sulfonyl)-2-((6-methylpyridin-2-yl)methyl)phthalazin-1(2H)-one], the Emax under setting [1] was 122%. Besides, the EC50 under setting [2] is 282 nM.

Take `Cc1c[nH]nc1Cn1ncc2cc(S(=O)(=O)c3ccc4c(c3)CCO4)ccc2c1=O` [Example 208, 6-((2,3-dihydrobenzofuran-5-yl)sulfonyl)-2-((4-methyl-1H-pyrazol-3-yl)methyl)phthalazin-1(2H)-one]: the Emax under setting [1] was 104%. Also, the concentration giving a half-maximal response (EC50) under setting [2] amounted to 33.3 nM.

Consider `Cc1cc(Cn2ncc3cc(S(=O)(=O)c4ccc5c(c4)CCO5)ccc3c2=O)n[nH]1` [Example 209, 6-((2,3-dihydrobenzofuran-5-yl)sulfonyl)-2-((5-methyl-1H-pyrazol-3-yl)methyl)phthalazin-1(2H)-one], for which the Emax under setting [1] amounted to 118%. Also, the EC50 under setting [2] turned out to be 23.2 nM.

Consider `Cn1ccc(S(=O)(=O)c2ccc3c(=O)n(Cc4ccccc4C(N)=O)ncc3c2)n1` [Example 210, 2-((6-(1-methyl-1H-pyrazol-3-ylsulfonyl)-1-oxophthalazin-2(1H)-yl)methyl)benzamide], for which the Emax under setting [1] came out at 87.4%. Moreover, the concentration for a half-maximal effect (EC50) under setting [2] was 318 nM.

With `O=c1c2ccc(S(=O)(=O)c3ccccn3)cc2cnn1Cc1cc[nH]n1` [Example 211, 2-((1H-pyrazol-3-yl)methyl)-6-(pyridin-2-ylsulfonyl)phthalazin-1(2H)-one], the Emax under setting [1] was determined as 80.7%. In addition, the EC50 under setting [2] turned out to be 222 nM.

In the case of `Cn1ccc(Cn2ncc3cc(S(=O)(=O)c4ccc(OC(F)F)cc4)ccc3c2=O)n1` [Example 212, 6-((4-(difluoromethoxy)phenyl)sulfonyl)-2-((1-methyl-1H-pyrazol-3-yl)methyl)phthalazin-1(2H)-one], under setting [1], the Emax turned out to be 108%. Under setting [2], the concentration giving a half-maximal response (EC50) was 23.8 nM.

Take `CC1Cc2cc(S(=O)(=O)c3ccc4c(=O)n(Cc5ccn(C)n5)ncc4c3)ccc2O1` (stereo not drawn) [Example 213, 2-((1-methyl-1H-pyrazol-3-yl)methyl)-6-((2-methyl-2,3-dihydrobenzofuran-5-yl)sulfonyl)phthalazin-1(2H)-one]: the maximal response (Emax) under setting [1] was found to be 107%. In addition, the half-maximal effective concentration (EC50) under setting [2] amounted to 36.5 nM.

Take `Cc1nc(S(=O)(=O)c2ccc3c(=O)n(Cc4ccn(C)n4)ncc3c2)cs1` [Example 214, 2-((1-methyl-1H-pyrazol-3-yl)methyl)-6-((2-methylthiazol-4-yl)sulfonyl)phthalazin-1(2H)-one]: the Emax under setting [1] was 102%. Moreover, under setting [2], the EC50 is 254 nM.

On to `Cn1ccc(Cn2ncc3cc(S(=O)(=O)c4ccc5c(c4)OCCO5)ccc3c2=O)n1` [Example 215, 6-((2,3-dihydrobenzo[b][1,4]dioxin-6-yl)sulfonyl)-2-((1-methyl-1H-pyrazol-3-yl)methyl)phthalazin-1(2H)-one], for which the Emax under setting [1] is 93.4%. Under setting [2], the EC50 stood at 25.2 nM.

Regarding `CCOc1ccc(S(=O)(=O)c2ccc3c(=O)n(Cc4ccn(C)n4)ncc3c2)cc1` [Example 216, 6-((4-ethoxyphenyl)sulfonyl)-2-((1-methyl-1H-pyrazol-3-yl)methyl)phthalazin-1(2H)-one], the Emax under setting [1] is 103%. The EC50 under setting [2] was 74.3 nM.

For `C[C@@H]1Cc2cc(S(=O)(=O)c3ccc4c(=O)n(Cc5ccn(C)n5)ncc4c3)ccc2O1` [Example 217, (R)-2-((1-methyl-1H-pyrazol-3-yl)methyl)-6-((2-methyl-2,3-dihydrobenzofuran-5-yl)sulfonyl)phthalazin-1(2H)-one], under setting [1], the Emax stood at 115%. Besides, the EC50 under setting [2] was found to be 60.2 nM.

With `Cn1ccc(Cn2ncc3cc(S(=O)(=O)c4ccc(OC(F)(F)F)cc4)ccc3c2=O)n1` [Example 218, 20((1-methyl-1H-pyrazol-3-yl)methyl)-6-((4-(trifluoromethoxy)phenyl)sulfonyl)phthalazin-1(2H)-one], under setting [1], the Emax worked out at 116%. Under setting [2], the EC50 was determined as 192 nM.

With `Cc1coc2ccc(S(=O)(=O)c3ccc4c(=O)n(Cc5cc[nH]n5)ncc4c3)cc12` [Example 220, 2-((1H-pyrazol-3-yl)methyl)-6-((3-methylbenzofuran-5-yl)sulfonyl)phthalazin-1(2H)-one], the Emax under setting [1] came to 84.7%. Moreover, the EC50 under setting [2] stood at 67.7 nM.

For `O=c1c2ccc(S(=O)(=O)c3ccc4ccoc4c3)cc2cnn1Cc1cc[nH]n1` [Example 222, 2-((1H-pyrazol-3-yl)methyl)-6-(benzofuran-6-ylsulfonyl)phthalazin-1(2H)-one], the Emax under setting [1] was 115%. The concentration for a half-maximal effect (EC50) under setting [2] was 136 nM.

For the origin of these results see patent publication US20260152487A1 (Sitryx Therapeutics Limited, priority 2021, published 2026).
